From patent US12616692B2, “Method of achieving HIV viral remission using long-acting antiretroviral agents” (ViiV Healthcare Company, priority 2020, dated 2026)

Assays:
HIV = details: cited from earlier work
[1] = 50 mg/kg CAB LA, 200 mg/kg RPV intramuscularly once a month; cited from earlier work
[2] = rhesus monkey, in vivo

| Compound | Protein-adjusted concentration required for 90% viral inhibition (HIV) [µg/mL] | Plasma concentration relative to protein-adjusted concentration required for 90% viral inhibition [1] | Time after the last dose over which plasma concentration declined to undetectable levels (remained detected) [2] |
| --- | --- | --- | --- |
| C[C@H]1CO[C@@H]2Cn3cc(C(=O)NCc4ccc(F)cc4F)c(=O)c(O)c3C(=O)N12 [CAB, cabotegravir] | 0.166 | well above | 4-7 months |
| Cc1cc(/C=C/C#N)cc(C)c1Nc1ccnc(Nc2ccc(C#N)cc2)n1 [RPV, rilpivirine] |  | well above | 4-7 months |
